Results reported in the NIST ThermoML archive (doi:10.1016/j.fluid.2017.07.020).
“And” between values parts separate entries of the source, which are not always exact repeats. Equal values may be shown once.

Tests used:
[1] = Molar enthalpy of transition or fusion; conditions: DSC
[2] = solid-solid phase transition pressure; conditions: Crystal 2, DTA

ClC12CC3CC(CC(C3)C1)C2 [1-chlorotricyclo[3.3.1.1(3,7)]decane]
Conditions	Molar enthalpy of transition or fusion [kcal/mol]	solid-solid phase transition pressure [kPa]
[1], Crystal 1	1.01	–
[1], Crystal 2	1.42	–
[2], 250.4 K	–	400
[2], 254.3 K	–	15100
[2], 260.5 K	–	47600
[2], 265 K	–	52500
[2], 270.3 K	–	73100
[2], 274.4 K	–	98800
[2], 278.5 K	–	104200
[2], 284.7 K	–	123100
[2], 292.2 K	–	153000
[2], 292.3 K	–	150200
[2], 298.4 K	–	173600
[2], 300.5 K	–	199600
[2], 306.2 K	–	204000
[2], 307 K	–	216500
[2], 311.5 K	–	221600
[2], 313.1 K	–	237900
[2], 313.7 K	–	242200
[2], 315.2 K	–	237700
[2], 317.3 K	–	241000
[2], 319.5 K	–	261500
[2], 320.7 K	–	266800

Conditions	Triple point temperature [K]
Crystal 1, DSC	438.6
Crystal 2, DTA	249.5

BrC12CC3CC(CC(C3)C1)C2 [1-bromotricyclo[3.3.1.1(3,7)]decane]
Conditions	Molar enthalpy of transition or fusion [kcal/mol]	phase transition pressure
286.4 K, Crystal 3, DTA	–	36100 kPa
292.5 K, Crystal 3, DTA	–	71200 kPa
299.2 K, Crystal 3, DTA	–	93300 kPa
310.5 K, Crystal 3, DTA	–	122500 kPa
310.7 K, Crystal 2, DTA	–	31100 kPa
311.5 K, Crystal 3, DTA	–	117100 kPa
316.4 K, Crystal 3, DTA	–	151900 kPa
316.8 K, Crystal 3, DTA	–	133700 kPa
317.9 K, Crystal 2, DTA	–	48600 kPa
318.5 K, Crystal 2, DTA	–	49700 kPa
321.1 K, Crystal 2, DTA	–	48800 kPa
322.6 K, Crystal 2, DTA	–	50400 kPa
323 K, Crystal 2, DTA	–	40400 kPa
323.1 K, Crystal 2, DTA	–	50000 kPa
323.9 K, Crystal 2, DTA	–	49000 kPa
324.1 K, Crystal 2, DTA	–	51800 kPa
324.7 K, Crystal 2, DTA	–	45700 kPa
325.2 K, Crystal 2, DTA	–	50900 kPa
325.4 K, Crystal 3, DTA	–	151800 kPa
327.5 K, Crystal 3, DTA	–	184900 kPa
329.6 K, Crystal 2, DTA	–	72800 kPa
329.9 K, Crystal 2, DTA	–	72400 kPa
330.6 K, Crystal 3, DTA	–	175700 kPa
332 K, Crystal 2, DTA	–	74500 kPa
333.7 K, Crystal 3, DTA	–	227100 kPa
335.1 K, Crystal 2, DTA	–	73100 kPa
337 K, Crystal 3, DTA	–	199700 kPa
337.3 K, Crystal 2, DTA	–	100700 kPa
337.4 K, Crystal 2, DTA	–	95400 kPa
337.8 K, Crystal 2, DTA	–	101000 kPa
342.8 K, Crystal 3, DTA	–	256100 kPa
343.5 K, Crystal 2, DTA	–	118200 kPa
347.6 K, Crystal 2, DTA	–	128300 kPa
348.3 K, Crystal 2, DTA	–	126000 kPa
351.4 K, Crystal 2, DTA	–	126900 kPa
355.9 K, Crystal 2, DTA	–	138100 kPa
358.3 K, Crystal 2, DTA	–	153800 kPa
359 K, Crystal 2, DTA	–	154300 kPa
362.3 K, Crystal 2, DTA	–	155500 kPa
363.9 K, Crystal 2, DTA	–	177800 kPa
369 K, Crystal 2, DTA	–	182300 kPa
369.7 K, Crystal 2, DTA	–	189300 kPa
372.5 K, Crystal 2, DTA	–	178800 kPa
374.4 K, Crystal 2, DTA	–	205600 kPa
377.4 K, Crystal 2, DTA	–	205400 kPa
381.6 K, Crystal 2, DTA	–	204700 kPa and 234100 kPa
382.7 K, Crystal 2, DTA	–	224800 kPa
383.4 K, Crystal 2, DTA	–	232100 kPa
389.6 K, Crystal 2, DTA	–	255000 kPa
390.9 K, Crystal 2, DTA	–	255000 kPa
392.5 K, Crystal 2, DTA	–	261500 kPa
404.9 K, Crystal 1, DTA	–	25800 kPa
406 K, Crystal 1, DTA	–	32500 kPa
411.8 K, Crystal 1, DTA	–	61300 kPa
414.6 K, Crystal 1, DTA	–	56200 kPa
415.8 K, Crystal 1, DTA	–	78400 kPa
436.7 K, Crystal 1, DTA	–	160000 kPa
[1], Crystal 1	0.777	–
[1], Crystal 2	1.6	–
[1], Crystal 3	0.301	–

Conditions	Triple point temperature [K]
Crystal 1, DTA	392
Crystal 2, DTA	310.8
Crystal 3, DTA	282.6
